Reference: patent publication US11331341B2, “Combination therapies that enhance antimicrobial/anticancer activities” (International Business Machines Corporation, priority 2020, dated 2022)
In brackets after ≈: the same amount, converted by molar mass. Like-named read-outs stand apart in the source and are kept apart here.

Tests used:
[1] = test system: therapeutic-susceptible MCF7 cancer cells; assay: Cytotoxicity against therapeutic-susceptible MCF7; assay type: cell-based; settings: Homo sapiens
Protocol: (§1) Further, Table 2 regards anticancer activity against therapeutic-susceptible MCF7 cancer cells with an incubation time of 48 hours. For the combination therapies, the cancer cells were treated with the antimicrobial polymer for 4 hours followed by treatment with doxorubicin for 44 hours. Also, Table 3 regards anticancer activity against therapeutic-resistant MCF7 cancer cells with an incubation time of 48 hours. For the combination therapies, the cancer cells were treated with the antimicrobial polymer for 4 hours followed by treatment with doxorubicin for 44 hours.

[2] = test system: therapeutic-resistant MCF7/ADR cell line; assay: Cytotoxicity against therapeutic-resistant MCF7/ADR; assay type: cell-based; settings: Homo sapiens
Protocol: as §1

[3] = test system: BT474 cell line; assay: cells; settings: Homo sapiens, BT-474, read-out: absolute IC50 in treating BT474
From the text: Cytotoxicity graph 2100 regards treating BT474 solely with doxorubicin.

[4] = test system: MCR-1-positive E. coli strains; assay: Checkerboard assay / MIC, MCR-1-positive colistin-resistant E. coli; assay type: cell-based; settings: for MIC against MCR-1-positive E. coli: alone
From the text: Repetitive description of like elements employed in other embodiments described herein is omitted for sake of brevity.
Plasmid-mediated colistin-resistance has been reported in Gram-negative bacteria, which resulted from a MCR-1 enzyme that catalyzes the transfer of phosphoethanolamine to lipid A; thereby rendering the membrane more electropositive.

[5] = test system: therapeutic-resistant SK-OV-3-TR cell line; assay: Cytotoxicity against SK-OV-3-TR; assay type: cell-based; settings: SKOV3TR; FIG. 25; read-out: absolute IC50 in treating SK-OV-3-TR
From the text: Cytotoxicity graph 2500 regards treating SK-OV-3-TR solely with paclitaxel. […] Cytotoxicity graph 2502 regards treating SK-OV-3-TR solely with the example quaternary ammonium functionalized antimicrobial polymer 1402 (e.g., wherein “n” equals 21). […] Cytotoxicity graph 2504 regards treating SK-OV-3-TR solely with the example guanidinium functionalized antimicrobial polymer 1404 (e.g., wherein “m” equals 20). […] Cytotoxicity graph 2506 regards treating SK-OV-3-TR with a combination therapy of paclitaxel with 0.5 IC50 of the example quaternary ammonium functionalized antimicrobial polymer 1402 (e.g., wherein “n” equals 21). […] Cytotoxicity graph 2508 regards treating SK-OV-3-TR with a combination therapy of paclitaxel with 0.5 IC50 of example guanidinium functionalized antimicrobial polymer 1404 (e.g., wherein “m” equals 20).

[6] = MCF7, FIG. 22 and FIG. 24, read-out: absolute IC50 in treating MCF7
[7] = NCI/ADR-RES, FIG. 23 and FIG. 24, read-out: absolute IC50 in treating MCF7/ADR

COc1cccc2c1C(=O)c1c(O)c3c(c(O)c1C2=O)C[C@@](O)(C(=O)CO)C[C@@H]3O[C@H]1C[C@H](N)[C@H](O)[C@H](C)O1 [DOX, doxorubicin]
IC50 [1, 6]: 0.15 µg/mL
IC50 ([1]; MCF7, incubation 48 hours, combinations: polymer for 4 hours followed by doxorubicin for 44 hours, read-out: Absolute IC50): 0.054 µg/mL
IC50 [2, 7]: 139 µg/mL
IC50 ([2]; therapeutic-resistant MCF7, incubation 48 hours, combinations: polymer for 4 hours followed by doxorubicin for 44 hours, read-out: Absolute IC50): 375 µg/mL
IC50 [3]: 8.42 µg/mL (≈ 15.5 µM)

colistimethate sodium
MIC against MCR-1-positive E. coli ([4]; first of two MCR-1-positive E. coli strains): 15.6 µg/mL
MIC against MCR-1-positive E. coli ([4]; second of two MCR-1-positive E. coli strains): 31.3 µg/mL

CC(=O)O[C@H]1C(=O)[C@@]2(C)[C@H]([C@H](OC(=O)c3ccccc3)[C@]3(O)C[C@H](OC(=O)[C@H](O)[C@@H](NC(=O)c4ccccc4)c4ccccc4)C(C)=C1C3(C)C)[C@]1(OC(C)=O)CO[C@@H]1C[C@@H]2O [paclitaxel]
IC50 [1, 6]: 19.7 µg/mL
IC50 [2, 7]: 5150 µg/mL
IC50 [5]: 27.4 µg/mL (≈ 32.1 µM)

colistin
colistin MIC against MCR-1 colistin-resistant bacteria ([4]; with pQuat_20 at ½×MIC): < 0.49 µg/mL
